From PMC12737022, “Evaluations of Sex Differences in Dosimetry in Rats Following Perfluorohexanesulfonamide (PFHxSA) Oral Exposure” (Toxics, 2025)

Columns and labels:
[1] = set-up: method as in PMID 31078680; conditions: across both sexes; cited from earlier work
Sprague Dawley rats = assay: 5-day repeat dose in vivo study, survival; set-up: species or system rat; conditions: 0.01 to 100 mg/kg/day oral gavage once daily for five days; both sexes
Text: The plasma and liver samples for this investigation were provided by Mutlu et al.. The study design, including detailed descriptions of animal handling, procedures for dosing, clinical observations, termination, and collection of tissues, is reported elsewhere and is consistent with the ARRIVE guidelines. Briefly, male and female Sprague Dawley (SD) rats (Crl:CD(SD)) (n = 48/sex, 96 total) were purchased from Charles River Laboratory (Raleigh, NC, USA) and allowed to acclimate for ≥5 days before initial dosing. Rats were 8–10 weeks old at the time of exposure. PFHxSA dosing solutions in corn oil were prepared on Day 0 and used over the course of the study. Rats of both sexes (n = 5/sex, dose, and time point, plus eight vehicle controls per sex) were dosed by oral gavage (5 mL/kg body weight) once daily for five days. […] The formulation concentrations decreased from 100 mg/kg/day at half-log10 intervals until the lowest dose level, which was a full log10 interval below the next higher dose, giving eight dose levels (0.01 to 100 mg/kg/day or 0.025 µmol/kg/day to 250 µmol/kg/day) in addition to vehicle controls. Doses were administered in randomized order within ± 1 h on each day of dosing. […] Rats were euthanized 24 h after the last dose. […]

| SMILES | Liver partitioning summary values [1] | Survival (Sprague Dawley rats) |
| --- | --- | --- |
| O=S(=O)(O)C(F)(F)C(F)(F)C(F)(F)C(F)(F)C(F)(F)C(F)(F)F [PFHxS, perfluorohexane sulfonic acid] | 0.16–0.44 |  |
| NS(=O)(=O)C(F)(F)C(F)(F)C(F)(F)C(F)(F)C(F)(F)C(F)(F)F [PFHxSA, Perfluorohexanesulfonamide] |  | All rats survived to termination |
